The results in this text go back to ChEMBL document CHEMBL1152499, “Novel l-adenosine analogs as cardioprotective agents” (2009).

Each structure is given as a SMILES string. The source made the active and inactive calls. The rule behind the calls is not given here.

For test [1], the system named is Heart. Kind of test: Cardioprotective activity in isolated Langendorff ischemia-reperfused Swiss Webster mouse heart assessed as total tissue necrotic area. It counts as functional.
Test [2] relates to Heart. The experiment in a line: Cardioprotective activity in isolated Langendorff ischemia-reperfused Swiss Webster mouse heart assessed as increase in functional recovery of contractility. The format is tissue-based.
The test system of test [3] is Heart. The experiment in a line: Cardioprotective activity in isolated Langendorff ischemia-reperfused Swiss Webster mouse heart assessed as prolongation of time to ischemic contracture. It counts as functional.

In the case of `CNC(=O)[C@@H]1O[C@H](n2cnc3c(NC)ncnc32)[C@@H](O)[C@H]1N`, the result in test [1], in test [2] and in test [3] was inactive.

Take `Nc1ncnc2c1ncn2[C@@H]1O[C@H](CO)[C@@H](O)[C@H]1O` [ADENOSINE]: the Activity in test [1] came to 11.5%; in test [3], 13.6 min.

With `CN(C)c1ncnc2c1ncn2[C@H]1O[C@@H](CO)[C@H](N)[C@@H]1O`, the Activity in test [1] came to 19.1%; in test [3], 14.5 min. The outcome in test [2] was Active.
